Results reported in PMC10938783, “A novel pan-PI3K inhibitor KTC1101 synergizes with anti-PD-1 therapy by targeting tumor suppression and immune activation” (Molecular Cancer, 2024).

Test system: B16 cells gene expression
Test: RNA-Seq (DEGs, GSEA, heatmaps) of B16 cells
Details: for NES / enrichmentScore: KTC 0.2μM
[1] = B16 cells, GSEA gene set HALLMARK_ADIPOGENESIS
[2] = B16 cells, GSEA gene set HALLMARK_ALLOGRAFT_REJECTION
[3] = B16 cells, GSEA gene set HALLMARK_ANDROGEN_RESPONSE
[4] = B16 cells, GSEA gene set HALLMARK_APICAL_JUNCTION
[5] = B16 cells, GSEA gene set HALLMARK_APICAL_SURFACE
[6] = B16 cells, GSEA gene set HALLMARK_APOPTOSIS
[7] = B16 cells, GSEA gene set HALLMARK_BILE_ACID_METABOLISM
[8] = B16 cells, GSEA gene set HALLMARK_CHOLESTEROL_HOMEOSTASIS
[9] = B16 cells, GSEA gene set HALLMARK_COAGULATION
[10] = B16 cells, GSEA gene set HALLMARK_COMPLEMENT
[11] = B16 cells, GSEA gene set HALLMARK_DNA_REPAIR
[12] = B16 cells, GSEA gene set HALLMARK_E2F_TARGETS
[13] = B16 cells, GSEA gene set HALLMARK_EPITHELIAL_MESENCHYMAL_TRANSITION
[14] = B16 cells, GSEA gene set HALLMARK_ESTROGEN_RESPONSE_EARLY
[15] = B16 cells, GSEA gene set HALLMARK_ESTROGEN_RESPONSE_LATE
[16] = B16 cells, GSEA gene set HALLMARK_FATTY_ACID_METABOLISM
[17] = B16 cells, GSEA gene set HALLMARK_G2M_CHECKPOINT
[18] = B16 cells, GSEA gene set HALLMARK_GLYCOLYSIS
[19] = B16 cells, GSEA gene set HALLMARK_HEDGEHOG_SIGNALING
[20] = B16 cells, GSEA gene set HALLMARK_HEME_METABOLISM
[21] = B16 cells, GSEA gene set HALLMARK_HYPOXIA
[22] = B16 cells, GSEA gene set HALLMARK_IL2_STAT5_SIGNALING
[23] = B16 cells, GSEA gene set HALLMARK_IL6_JAK_STAT3_SIGNALING
[24] = B16 cells, GSEA gene set HALLMARK_INFLAMMATORY_RESPONSE
[25] = B16 cells, GSEA gene set HALLMARK_INTERFERON_ALPHA_RESPONSE
[26] = B16 cells, GSEA gene set HALLMARK_INTERFERON_GAMMA_RESPONSE
[27] = B16 cells, GSEA gene set HALLMARK_KRAS_SIGNALING_DN
[28] = B16 cells, GSEA gene set HALLMARK_KRAS_SIGNALING_UP
[29] = B16 cells, GSEA gene set HALLMARK_MITOTIC_SPINDLE
[30] = B16 cells, GSEA gene set HALLMARK_MTORC1_SIGNALING
[31] = B16 cells, GSEA gene set HALLMARK_MYC_TARGETS_V1
[32] = B16 cells, GSEA gene set HALLMARK_MYC_TARGETS_V2
[33] = B16 cells, GSEA gene set HALLMARK_MYOGENESIS
[34] = B16 cells, GSEA gene set HALLMARK_NOTCH_SIGNALING
[35] = B16 cells, GSEA gene set HALLMARK_OXIDATIVE_PHOSPHORYLATION
[36] = B16 cells, GSEA gene set HALLMARK_P53_PATHWAY

`COc1cc(N)cc2c1nc(C(F)F)n2-c1nc(N2CCCOCC2)nc(N2CCOCC2)n1` [KTC1101, 2-(difluoromethyl)-4-methoxy-1-(4-morpholino-6-(1,4-oxazepan-4-yl)-1,3,5-triazin-2-yl)-1H-benzo[d]imidazol-6-amine] was tested, and the “NES, mmu05152 Tuberculosis” value was -0.8664, the “NES, mmu05164 Influenza A” value was 0.7158 and the “NES, mmu05169 Epstein-Barr virus infection” value was 0.9901. For the same compound, the “enrichmentScore, mmu05152 Tuberculosis” value was -0.1994, the “enrichmentScore, mmu05164 Influenza A” value was 0.2008 and the “enrichmentScore, mmu05169 Epstein-Barr virus infection” value was 0.2613. For the same compound, the “immune pathways TNFα signaling via NF-κB, inflammatory response, chemokine signaling, cytokine-cytokine receptor interaction, IL-2-STAT5 (GSEA)” value (B16 cells, 0.04 and 0.2 μM, 48 h) was “significantly upregulated at both tested concentrations”, the NES [1] was -1.91 and the enrichmentScore [1] was -0.3889. It also gave an NES [2] of 1.691, an enrichmentScore [2] of 0.4865 and an NES [3] of 0.8627. For the same compound, the enrichmentScore [3] was 0.2417, the NES [4] was 1.3836 and the enrichmentScore [4] was 0.3738. For the same compound, the NES [5] was -2.057, the enrichmentScore [5] was -0.6354 and the NES [6] was 0.9502. For the same compound, the enrichmentScore [6] was 0.2533, the NES [7] was -0.7889 and the enrichmentScore [7] was -0.209. It also gave an NES [8] of -2.882, an enrichmentScore [8] of -0.7203 and an NES [9] of 2.055. For the same compound, the enrichmentScore [9] was 0.594, the NES [10] was 1.839 and the enrichmentScore [10] was 0.5017. The NES [11] was -0.6206, the enrichmentScore [11] was -0.1386 and the NES [12] was -2.092. It also gave an enrichmentScore [12] of -0.4182, an NES [13] of 1.653 and an enrichmentScore [13] of 0.443. For the same compound, the NES [14] was 1.194, the enrichmentScore [14] was 0.32 and the NES [15] was -1.354. The enrichmentScore [15] was -0.2968, the NES [16] was -1.5293 and the enrichmentScore [16] was -0.3352. It also gave an NES [17] of -1.723, an enrichmentScore [17] of -0.3452 and an NES [18] of -3.021. It also gave an enrichmentScore [18] of -0.6285, an NES [19] of -1.553 and an enrichmentScore [19] of -0.4866. It also gave an NES [20] of -0.8539, an enrichmentScore [20] of -0.1842 and an NES [21] of -1.667. It also gave an enrichmentScore [21] of -0.3411, an NES [22] of 1.6961 and an enrichmentScore [22] of 0.4531. It also gave an NES [23] of 1.437, an enrichmentScore [23] of 0.4564 and an NES [24] of 1.614. The enrichmentScore [24] was 0.4471, the NES [25] was -0.8696 and the enrichmentScore [25] was -0.2269. The NES [26] was 1.08, the enrichmentScore [26] was 0.2921 and the NES [27] was 1.399. The enrichmentScore [27] was 0.4365, the NES [28] was 2.0673 and the enrichmentScore [28] was 0.5585. For the same compound, the NES [29] was -1.3285, the enrichmentScore [29] was -0.2672 and the NES [30] was -3.5229. It also gave an enrichmentScore [30] of -0.6921, an NES [31] of -0.8926 and an enrichmentScore [31] of -0.1781. It also gave an NES [32] of -0.5144, an enrichmentScore [32] of -0.1367 and an NES [33] of 1.795. For the same compound, the enrichmentScore [33] was 0.4818, the NES [34] was 1.2511 and the enrichmentScore [34] was 0.4419. For the same compound, the NES [35] was -2.275, the enrichmentScore [35] was -0.46 and the NES [36] was -1.372. The enrichmentScore [36] was -0.2855 and the NES (B16 cells, GSEA gene set HALLMARK_PEROXISOME) was -1.588.
